Data from US20160046616A1, “NRF2 SMALL MOLECULE INHIBITORS FOR CANCER THERAPY” (THE JOHNS HOPKINS UNIVERSITY, priority 2013, published 2016).

What was measured:
[1] = tested on: A549 NRF2-ARE-Fluc stable cell line; assay: A549 Nrf2 assay: NRF2-ARE firefly luciferase reporter gene assay; assay type: cell-based; settings: Homo sapiens, read-out: Potency of inhibition, A549
Source text: A549, the parental cell line, is a non-small-cell lung cancer (NSCLC) cell line with loss-of-function (LOF) Keap1 activity, thus NRF2 transcription factor constitutively translocates into the nucleus to activate the expression of downstream target genes of NRF2. A firefly luciferase reporter (Fluc) construct driven by a minimal promoter of NRF2-specific anti-oxidant responsive element (ARE) is stably expressed in the A549 cells. Compounds that reduce the translocation of NRF2 into the nucleus or prevent the interaction between NRF2 and ARE will lead to a decrease in luciferase activity.
The final concentration of DMSO was maintained at 0.46%. Control compounds Budesonide and Staurosporine were both added at a concentration of 2 mM and Budesonide also was added as a 1:10 titration, starting at 200 μM, to achieve dose-response. After an 18-24 hour incubation at 37° C., 95% humidity, and 5% CO2, 1 μL of 5× CellTiter-Fluor non-lytic cell viability assay reagent (Promega, Madison, Wis.) was added into the each well of the plates. The plates were then incubated for 30 minutes at room temperature before they were read on a ViewLux plate imager (Perkin Elmer, Waltham, Mass.) using an excitation wavelength of 405 nm and an emission wavelength of 525 nm.
A cell based reporter assay approach was used for the identification of agents that could inhibit Nrf2 mediated gene expression (FIG. 1). A549-ARE-luciferase cells express the luciferase gene driven by a minimal promoter and an enhancer element containing an NRF2 binding site (Antioxidant Response Element, ARE).
(§1) Representative compounds were assayed to assess the potency of inhibition in an A549 NRF2-ARE-Fluc stable cell line (A549 Nrf2 assay), in an H838 NRF2-ARE-Fluc stable cell line (H838 Nrf2 assay), and in an H1437 NRF2-ARE-Fluc stable cell line (H1437 Nrf2 assay) (see Table 3).

[2] = tested on: H1437 NRF2-ARE-Fluc stable cell line; assay: H1437 Nrf2 assay: NRF2-ARE firefly luciferase reporter gene assay; assay type: cell-based; settings: Homo sapiens, NCI-H1437, H1437 NRF2-ARE-Fluc stable cell line; read-out: Potency of inhibition, H1437
Source text: H1437 is another NSCLC cell line with LOF Keap1 activity and constitutive translocation of NRF2 into the nucleus. A firefly luciferase reporter construct driven by a minimal promoter of NRF2-specific ARE is stably expressed in the H1437 cells. This cell line was used as a confirmation assay to make sure hits identified from primary screening and that passed counterscreen assays worked in different cell types with a constitutively active NRF2 pathway (deficiency in Keap1).
This assay was very similar to the primary assay except that the cell line was changed. […] The final concentration of DMSO was maintained at 0.46%. Control compounds Budesonide and Staurosporine were both added at a concentration of 2 mM and Budesonide was also added as a 1:10 titration, starting at 200 μM, to achieve dose-response. After an 18-24 hour incubation at 37° C., 95% humidity, and 5% CO2, 1 μL of 5× CellTiter-Fluor non-lytic cell viability assay reagent (Promega, Madison Wis.) was added into the each well of the plates. The plates were then incubated for 30 minutes at room temperature before they were read on a ViewLux plate imager (Perkin Elmer, Waltham Mass.) using an excitation wavelength of 405 nm and an emission wavelength of 525 nm.
as §1

Row | IC50 [1] [µM] | IC50 [2] [µM] | SMILES
1 | < 5 | > 25 | O=C(Nc1ncc(Cc2ccc(C(F)(F)F)cc2)s1)c1cccc(-c2ccccc2)n1 [Compound 61]
2 | > 25 | > 25 | O=C(Cc1ccccc1)Nc1cccc(-c2ccc(N3CCCCC3)cc2)n1 [Compound 63]
3 | 5 to 25 | > 25 | CNc1ccc(-c2cccc(NC(=O)Cc3ccccc3)n2)cc1 [Compound 64, N-(6-(4-(methylamino)phenyl)pyridin-2-yl)-2-phenylacetamide]
4 | 5 to 25 | 5 to 25 | Cc1ccccc1C(=O)N1CCc2cc(-c3cccc(N4CCOCC4)n3)ccc21 [Compound 65]
5 | 5 to 25 | 5 to 25 | Cc1ccccc1C(=O)N1CCc2cc(-c3nc(NC(=O)CN4CCCCC4)sc3C)ccc21 [Compound 66]
6 | 5 to 25 | > 25 | Cc1cnc(NC(=O)c2ccc(-c3cccc([N+](=O)[O-])c3)o2)s1 [Compound 67]
7 | 5 to 25 | 5 to 25 | Cc1ccccc1C(=O)N(C)c1ccc(-c2cccc(NC(=O)Cc3ccccc3)n2)cc1 [Compound 68]
8 | < 5 | < 5 | Cc1ccccc1C(=O)N1CCc2cc(-c3nc(NC(=O)CN4CCN(C(=O)OC(C)(C)C)CC4)sc3C)ccc21 [Compound 69, tert-butyl 4-(2-((5-methyl-4-(1-(2-methylbenzoyl)indolin-5-yl)thiazol-2-yl)amino)-2-oxoethyl)piperazine-1-carboxylate]
9 | > 25 | > 25 | Cc1ccccc1C(=O)N1CCc2cc(-c3nc(NC(=O)CN4CCNCC4)sc3C)ccc21 [Compound 70, N-(5-methyl-4-(1-(2-methylbenzoyl)indolin-5-yl)thiazol-2-yl)-2-(piperazin-1-yl)acetamide]
10 | 5 to 25 | > 25 | Cc1ccccc1C(=O)Nc1ccc(-c2cccc(NC(=O)Cc3ccccc3)n2)cc1 [Compound 71]
11 | > 25 | 5 to 25 | Cc1ccccc1C(=O)N1CCc2cc(-c3nc(NC(=O)CN4CCN(C)CC4)sc3C)ccc21 [Compound 72]
12 | > 25 | 5 to 25 | Cc1ccccc1C(=O)N1CCc2cc(-c3nc(NC(=O)CC4CCNCC4)sc3C)ccc21 [Compound 73]
13 | > 25 | > 25 | O=C(CCc1ccccc1)Nc1ncc(Cc2ccc(C(F)(F)F)cc2)s1 [Compound 74]
14 | 5 to 25 | 5 to 25 | Cc1ccccc1C(=O)N1CCc2cc(-c3nc(NC(=O)CC4CCN(C)CC4)sc3C)ccc21 [Compound 75]
15 | 5 to 25 | > 25 | Cc1ccccc1C(=O)n1ccc2cc(-c3cccc(NC(=O)Cc4ccccc4)n3)cnc21 [Compound 76]
16 | 5 to 25 | 5 to 25 | Cc1ccccc1C(=O)N1CCc2cc(-c3nc(NC(=O)CN4CCOCC4)sc3C)ccc21 [Compound 77]
17 | > 25 | > 25 | O=C(Cc1ccccc1)Nc1cccc(-c2ccc(N3CCOCC3)cc2)n1 [Compound 78]
18 | < 5 | 5 to 25 | Cc1ccccc1C(=O)N1CCc2cc(-c3nc(NC(=O)CC4CCCCC4)sc3C)ccc21 [Compound 79]
19 | > 25 | > 25 | Nc1ccc(-c2cccc(NC(=O)Cc3ccccc3)n2)cc1 [Compound 80, N-(6-(4-aminophenyl)pyridin-2-yl)-2-phenylacetamide]
20 | 5 to 25 | 5 to 25 | O=C(Nc1ncc(CN2CCOCC2)s1)c1ccc(-c2cccc([N+](=O)[O-])c2)o1 [Compound 81]
21 | 5 to 25 | > 25 | O=C(Nc1ncc(-c2ccccc2)s1)c1ccc(-c2cccc([N+](=O)[O-])c2)o1 [Compound 82]
22 | > 25 | > 25 | O=C(Nc1ncc(Cc2ccc(C(F)(F)F)cc2)s1)c1ccc(-c2ccccc2)s1 [Compound 83]
23 | 5 to 25 | 5 to 25 | Cc1ccccc1C(=O)N1CCc2cc(-c3nc(NC(=O)CC4CCOCC4)sc3C)ccc21 [Compound 84]
24 | 5 to 25 | > 25 | O=C(Nc1nc(Cc2ccccc2)cs1)c1ccc(-c2cccc([N+](=O)[O-])c2)o1 [Compound 85]

Row | IC50 [1] [µM] | IC50 [2] [µM] | SMILES
25 | 5 to 25 | 5 to 25 | O=C(Nc1ncc(Cc2ccc(C(F)(F)F)cc2)s1)c1cnc(-c2ccccc2)o1 [Compound 86]
26 | > 25 | > 25 | O=C(Nc1ncc(CN2CCCCC2)s1)c1ccc(-c2cccc([N+](=O)[O-])c2)o1 [Compound 87]
27 | 5 to 25 | > 25 | O=C(Cc1ccccc1)Nc1cccc(-c2cnc3[nH]ccc3c2)n1 [Compound 88, N-(6-(1H-pyrrolo[2,3-b]pyridin-5-yl)pyridin-2-yl)-2-phenylacetamide]
28 | > 25 | > 25 | O=C(O)c1ccc(CN2CCc3ccccc3C2)cc1 [Compound 90, 4-((3,4-dihydroisoquinolin-2(1H)-yl)methyl)benzoic acid]
29 | 5 to 25 | > 25 | O=C(Cc1ccccc1)Nc1cccc(-c2ccc3[nH]ncc3c2)n1 [Compound 91, N-(6-(1H-indazol-5-yl)pyridin-2-yl)-2-phenylacetamide]
30 | 5 to 25 | > 25 | O=C(Cc1ccccc1)Nc1cccc(-c2ccc3[nH]c(-c4ccccc4)nc3c2)n1 [Compound 92]
31 | 5 to 25 | > 25 | Cc1ccccc1C(=O)N1CCc2cc(N3CCC(N)C3)ccc21 (stereo not shown) [Compound 93, (5-(3-aminopyrrolidin-1-yl)indolin-1-yl)(o-tolyl)methanone]
32 | > 25 | > 25 | Cc1ccccc1C(=O)N1CCc2cc(N3CCCC(N)C3)ccc21 (stereo not shown) [Compound 94, (5-(3-aminopiperidin-1-yl)indolin-1-yl)(o-tolyl)methanone]
33 | < 5 | 5 to 25 | Cc1ccccc1C(=O)n1ncc2cc(-c3cccc(NC(=O)Cc4ccccc4)n3)ccc21 [Compound 95]
34 | 5 to 25 | 5 to 25 | Cc1ccccc1C(=O)N1CCc2cc(N3CCC(NC(=O)Cc4ccccc4)C3)ccc21 (stereo not shown) [Compound 96]
35 | 5 to 25 | 5 to 25 | Cc1ccccc1C(=O)N1CCc2cc(N3CCCC(NC(=O)Cc4ccccc4)C3)ccc21 (stereo not shown) [Compound 97]
36 | 5 to 25 | 5 to 25 | O=C(Nc1ncc(Cc2ccc(C(F)(F)F)cc2)s1)c1ccc(Br)o1 [Compound 98]
37 | 5 to 25 | > 25 | O=C(Nc1ncc(Cc2ccc(C(F)(F)F)cc2)s1)c1cnc(-c2ccccc2)s1 [Compound 99]
38 | 5 to 25 | 5 to 25 | Cc1ccccc1C(=O)N1CCc2cc(-n3cc(NC(=O)Cc4ccccc4)cn3)ccc21 [Compound 100]
39 | 5 to 25 | 5 to 25 | Cc1ccccc1C(=O)N1CCc2cc(-c3ccc(NC(=O)Cc4ccccc4)cn3)ccc21 [Compound 101]
40 | 5 to 25 | > 25 | Cc1ccccc1C(=O)N1CCc2cc(-c3ccnc(NC(=O)Cc4ccccc4)n3)ccc21 [Compound 102]
41 | > 25 | > 25 | O=C(NC1CCCN(Cc2ccccc2)C1)c1ccc(-c2cccc([N+](=O)[O-])c2)o1 (stereo not shown) [Compound 103]
42 | < 5 | 5 to 25 | Cc1ccccc1C(=O)N1CCc2cc(-c3cncc(NC(=O)Cc4ccccc4)n3)ccc21 [Compound 104]
43 | > 25 | > 25 | O=C(Cc1ccccc1)Nc1cncc(Cl)n1 [Compound 105, N-(6-chloropyrazin-2-yl)-2-phenylacetamide]
44 | > 25 | > 25 | O=C(Cc1ccccc1)Nc1ccc(Cl)nc1 [Compound 106, N-(6-chloropyridin-3-yl)-2-phenylacetamide]
45 | 5 to 25 | > 25 | Cc1ccccc1C(=O)N1CCc2cc(Br)ccc21 [Compound 107, (5-bromoindolin-1-yl)(o-tolyl)methanone]
46 | > 25 | > 25 | O=C(CCCc1ccccc1)Nc1ncc(Cc2ccc(C(F)(F)F)cc2)s1 [Compound 108]
47 | 5 to 25 | 5 to 25 | Cc1ccccc1C(=O)N1CCc2cc(-c3nc(NS(=O)(=O)Cc4ccccc4)sc3C)ccc21 [Compound 109]
